Consider 1 compound from BindingDB's records for doi:10.1021/jm00172a024 (Rorer Central Research, 1990).

The target in this test is Cysteinyl leukotriene receptor 1 (Cavia porcellus). Put plainly: In vitro binding affinity against Cysteinyl leukotriene D4 receptor from guinea pig lung membrane.

On to `CCCC(CCc1nnn[nH]1)Cc1ccc(OCc2ccc3ccccc3n2)cc1` (stereo unspecified), for which the Ki came out at 11 nM. In other words, the double-digit nanomolar range.

What is called Ki is the equilibrium dissociation constant of an inhibitor or competing ligand from its target. Low readings indicate higher affinity, high ones lower affinity.
